Source: patent publication US20080161305A1, “C-Met Modulators and Methods of Use” (EXELIXIS, INC., priority 2005, published 2008)

Assays:
Type in all cases: biochemical
[1] = molecular target: c-Met (baculovirus expressed human c-Met kinase domain P948-S1343) (Homo sapiens, UniProt P08581); test: c-Met Luciferase-Coupled Chemiluminescent Kinase assay (LCCA); conditions: 1 μM ATP, 10 nM c-Met
Method: (§1) Kinase activity and compound inhibition are investigated using one or more of the three assay formats described below. The ATP concentrations for each assay are selected to be close to the Michaelis-Menten constant (KM) for each individual kinase. Dose-response experiments are performed at 10 different inhibitor concentrations in a 384-well plate format. The data are fitted to the following four-parameter equation:
(§2) Y=Min+(Max−Min)/(1+(X/IC50)̂H)
(§3) where Y is the observed signal, X is the inhibitor concentration, Min is the background signal in the absence of enzyme (0% enzyme activity), Max is the signal in the absence of inhibitor (100% enzyme activity), IC50 is the inhibitor concentration at 50% enzyme inhibition and H represents the empirical Hill's slope to measure the cooperativity. Typically H is close to unity. c-Met Assay
(§4) c-Met biochemical activity was assessed using a Luciferase-Coupled Chemiluminescent Kinase assay (LCCA) format as described above. Again, kinase activity was measured as the percent ATP remaining following the kinase reaction. Remaining ATP was detected by luciferase-luciferin-coupled chemiluminescence. […] The mixture is incubated at ambient temperature for 2 hours after which 20 uL luciferase-luciferin mix is added and the chemiluminescent signal read using a Wallac Victor^2 reader. […]

[2] = molecular target: T1, KDR (baculovirus expressed human KDR kinase domain D807-V1356) (Homo sapiens, UniProt P35968); test: KDR Luciferase-Coupled Chemiluminescent Kinase assay (LCCA); conditions: 3 μM ATP, 5 nM KDR
T1 construct: human KDR kinase domain D807-V1356; made in house
T1 sequence (P35968 807-1356): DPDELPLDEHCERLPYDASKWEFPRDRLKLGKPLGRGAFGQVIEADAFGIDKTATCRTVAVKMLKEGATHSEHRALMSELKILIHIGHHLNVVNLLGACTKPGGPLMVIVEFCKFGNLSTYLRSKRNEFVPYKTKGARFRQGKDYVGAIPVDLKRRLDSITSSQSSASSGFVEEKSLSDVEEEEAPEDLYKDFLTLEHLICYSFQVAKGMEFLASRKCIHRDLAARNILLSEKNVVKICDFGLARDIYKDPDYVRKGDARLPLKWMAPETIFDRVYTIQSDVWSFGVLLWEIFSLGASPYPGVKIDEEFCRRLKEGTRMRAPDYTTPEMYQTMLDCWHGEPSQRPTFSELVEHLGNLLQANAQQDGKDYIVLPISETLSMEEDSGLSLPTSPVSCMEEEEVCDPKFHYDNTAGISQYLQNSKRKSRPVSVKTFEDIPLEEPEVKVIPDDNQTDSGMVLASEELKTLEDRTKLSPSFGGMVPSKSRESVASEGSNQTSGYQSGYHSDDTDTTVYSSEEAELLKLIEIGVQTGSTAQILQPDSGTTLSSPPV
Method: as §1, §2, §3
as §4, with “KDR biochemical” for “c-Met biochemical”, “(LCCA) format. Kinase” for “(LCCA) format as described above. Again, kinase”, “for 4” for “for 2”

c-Kit kinase = c-Kit kinase (Homo sapiens, UniProt P10721); test: c-Kit AlphaScreen assay
c-Kit kinase, sequence (P10721 26-976): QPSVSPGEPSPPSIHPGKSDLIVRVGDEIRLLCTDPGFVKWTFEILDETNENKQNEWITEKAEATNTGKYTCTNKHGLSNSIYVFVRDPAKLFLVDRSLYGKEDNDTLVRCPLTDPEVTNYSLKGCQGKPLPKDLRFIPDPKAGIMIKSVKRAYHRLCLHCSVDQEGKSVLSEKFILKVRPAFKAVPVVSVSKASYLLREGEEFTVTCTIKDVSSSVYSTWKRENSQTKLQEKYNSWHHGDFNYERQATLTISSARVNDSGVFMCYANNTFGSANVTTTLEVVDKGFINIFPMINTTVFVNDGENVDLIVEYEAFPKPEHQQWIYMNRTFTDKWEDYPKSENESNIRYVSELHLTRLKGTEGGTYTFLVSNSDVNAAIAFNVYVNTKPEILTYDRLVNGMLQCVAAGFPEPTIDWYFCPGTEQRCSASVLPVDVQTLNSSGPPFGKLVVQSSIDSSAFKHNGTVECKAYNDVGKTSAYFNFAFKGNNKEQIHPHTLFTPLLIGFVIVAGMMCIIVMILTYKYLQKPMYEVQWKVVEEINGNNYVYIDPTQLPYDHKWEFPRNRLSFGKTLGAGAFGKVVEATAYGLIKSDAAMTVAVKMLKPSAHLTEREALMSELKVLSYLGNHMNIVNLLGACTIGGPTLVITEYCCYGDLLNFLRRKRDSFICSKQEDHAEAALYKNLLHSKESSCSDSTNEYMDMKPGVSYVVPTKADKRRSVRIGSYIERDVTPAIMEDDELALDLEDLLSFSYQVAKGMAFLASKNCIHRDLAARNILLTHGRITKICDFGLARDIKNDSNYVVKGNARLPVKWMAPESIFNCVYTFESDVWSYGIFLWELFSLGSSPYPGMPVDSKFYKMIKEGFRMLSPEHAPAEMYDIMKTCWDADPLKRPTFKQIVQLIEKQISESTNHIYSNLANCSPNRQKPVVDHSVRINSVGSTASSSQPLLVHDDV
Method: as §1, §2, §3
c-Kit biochemical activity was assessed using AlphaScreen™ (Perkin Elmer) technology, described above. Test compounds, ATP, biotinylated poly(Glu, Tyr) and c-Kit kinase were combined in a volume of 20 μL in a 384-well white, medium binding microtiter plate (Greiner). Reaction mixtures were incubated for 1 hr at ambient temperature. […] After 16 hr incubation at ambient temperature plates were read using an AlphaQuest reader (Perkin Elmer).

[3] = molecular target: T2, Flt-3 (baculovirus expressed human Flt-3 kinase domain R571-S993) (Homo sapiens, UniProt P36888); test: flt-3 Luciferase-Coupled Chemiluminescent Kinase assay (LCCA); conditions: 5 μM ATP, 5 nM Flt-3; read-out: flt3 IC50
T2 construct: human Flt-3 kinase domain R571-S993; made in house
T2 sequence (P36888 571-993): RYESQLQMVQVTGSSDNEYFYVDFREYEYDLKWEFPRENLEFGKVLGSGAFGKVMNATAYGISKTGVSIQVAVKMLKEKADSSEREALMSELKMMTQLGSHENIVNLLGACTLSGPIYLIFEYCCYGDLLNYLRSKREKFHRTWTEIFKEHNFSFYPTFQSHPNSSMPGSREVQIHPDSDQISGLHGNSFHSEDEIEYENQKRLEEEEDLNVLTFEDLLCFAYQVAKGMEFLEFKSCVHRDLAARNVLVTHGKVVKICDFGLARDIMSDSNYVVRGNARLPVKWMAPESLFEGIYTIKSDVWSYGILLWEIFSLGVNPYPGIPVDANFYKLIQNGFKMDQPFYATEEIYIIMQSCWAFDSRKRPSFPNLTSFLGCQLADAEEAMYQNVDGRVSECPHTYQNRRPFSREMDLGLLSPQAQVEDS
Method: as §1, §2, §3
Biochemical activity for flt-3 was assessed using a Luciferase-Coupled Chemiluminescent Kinase assay (LCCA) format. Kinase activity was measured as the percent ATP remaining following the kinase reaction. Remaining ATP was detected by luciferase-luciferin-coupled chemiluminescence. […] The mixture is incubated at ambient temperature for 3 hours after which 20 uL luciferase-luciferin mix is added and the chemiluminescent signal read using a Wallac Victor^2 reader. […]

[4] = molecular target: T3, Flt-4 (baculovirus expressed human Flt-4 kinase domain D725-R1298) (Homo sapiens, UniProt P35916); test: flt-4 Alphascreen Tyrosine Kinase assay; conditions: 5 μM ATP, 1 nM Flt-4; read-out: flt4 IC50
T3 construct: human Flt-4 kinase domain D725-R1298; made in house
T3 sequence (P35916 725-1298 isoform P35916-1): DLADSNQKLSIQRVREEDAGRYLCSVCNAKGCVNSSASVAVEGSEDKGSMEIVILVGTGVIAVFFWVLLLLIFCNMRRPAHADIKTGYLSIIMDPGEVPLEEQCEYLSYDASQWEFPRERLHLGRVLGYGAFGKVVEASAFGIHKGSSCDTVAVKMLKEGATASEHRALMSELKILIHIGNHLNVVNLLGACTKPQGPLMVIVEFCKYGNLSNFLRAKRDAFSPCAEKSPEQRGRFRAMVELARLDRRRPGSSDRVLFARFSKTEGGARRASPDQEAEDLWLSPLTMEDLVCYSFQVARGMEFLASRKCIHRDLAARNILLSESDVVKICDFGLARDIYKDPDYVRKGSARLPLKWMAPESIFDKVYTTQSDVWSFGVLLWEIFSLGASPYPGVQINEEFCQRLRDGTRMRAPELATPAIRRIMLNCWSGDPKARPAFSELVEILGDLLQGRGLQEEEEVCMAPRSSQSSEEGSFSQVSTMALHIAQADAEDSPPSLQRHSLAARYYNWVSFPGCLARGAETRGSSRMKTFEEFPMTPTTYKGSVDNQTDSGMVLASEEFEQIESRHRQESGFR
Method: as §1, §2, §3
Biochemical activity for flt-4 was assessed using an Alphascreen Tyrosine Kinase protocol. AlphaScreen™ (Perkin Elmer) technology is a proximity assay employing microparticles. […] Substrate phosphorylation was measured by addition of donor/acceptor beads by chemiluminescence following donor-acceptor bead complex formation. […] After 2-16 hr incubation at ambient temperature plates were read using an AlphaQuest reader (Perkin Elmer). IC50 values correlate well with those determined by radiometric assays.

Measured: IC50

c-Met (baculovirus expressed human c-Met kinase domain P948-S1343), sequence (P08581 1078-1345 limits assumed): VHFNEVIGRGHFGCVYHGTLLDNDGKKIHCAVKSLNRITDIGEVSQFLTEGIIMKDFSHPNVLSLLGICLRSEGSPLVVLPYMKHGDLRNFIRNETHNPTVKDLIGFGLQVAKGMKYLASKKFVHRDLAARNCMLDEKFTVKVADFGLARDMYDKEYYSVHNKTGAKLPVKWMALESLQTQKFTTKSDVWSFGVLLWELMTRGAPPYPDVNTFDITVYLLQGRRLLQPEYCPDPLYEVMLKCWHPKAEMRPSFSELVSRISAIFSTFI

COc1cc2c(Oc3ccc(NC(=O)C(=O)NCCc4ccc(F)cc4)cc3F)ccnc2cc1OCCCN1CCOCC1 [Entry 1, N-[3-fluoro-4-({6-(methyloxy)-7-[(3-morpholin-4-ylpropyl)oxy]quinolin-4-yl}oxy)phenyl]-N′-[2-(4-fluorophenyl)ethyl]ethanediamide]
< 50 nM: all assays above
